Earlier results on 1 compound are cited in article PMC6530907 (Biochemistry, 2019).

This data set has as its target YbtE. Conditions: cited from earlier work.

Structures are written as SMILES.

For orientation: Ki means the dissociation constant of the complex between target and ligand, obtained from inhibition or displacement. `Nc1ncnc2c1ncn2[C@@H]1O[C@H](COS(=O)(=O)NC(=O)c2ccccc2O)[C@@H](O)[C@H]1O` [compound 1, 5´-O-[N-salicylsulfamoyl]adenosine]: the Ki was 0.7 nM.
